{"source": "ChEMBL document CHEMBL1150819", "about": "“Microxine, a new cdc2 kinase inhibitor from the Australian marine sponge Microxina species” (J Nat Prod, 2001)", "key": {"A549": {"test_system": "A549", "test": "Cytotoxicity against human A549 cells at 18 uM", "type": "functional, cell-based"}, "P388": {"test_system": "P388", "test": "Cytotoxicity against mouse P388 cells at 18 uM", "type": "functional, cell-based"}, "[1]": {"molecular_target": "T1, M-phase inducer phosphatase 1 (Homo sapiens) (UniProt P30304)", "T1 sequence (whole entry)": "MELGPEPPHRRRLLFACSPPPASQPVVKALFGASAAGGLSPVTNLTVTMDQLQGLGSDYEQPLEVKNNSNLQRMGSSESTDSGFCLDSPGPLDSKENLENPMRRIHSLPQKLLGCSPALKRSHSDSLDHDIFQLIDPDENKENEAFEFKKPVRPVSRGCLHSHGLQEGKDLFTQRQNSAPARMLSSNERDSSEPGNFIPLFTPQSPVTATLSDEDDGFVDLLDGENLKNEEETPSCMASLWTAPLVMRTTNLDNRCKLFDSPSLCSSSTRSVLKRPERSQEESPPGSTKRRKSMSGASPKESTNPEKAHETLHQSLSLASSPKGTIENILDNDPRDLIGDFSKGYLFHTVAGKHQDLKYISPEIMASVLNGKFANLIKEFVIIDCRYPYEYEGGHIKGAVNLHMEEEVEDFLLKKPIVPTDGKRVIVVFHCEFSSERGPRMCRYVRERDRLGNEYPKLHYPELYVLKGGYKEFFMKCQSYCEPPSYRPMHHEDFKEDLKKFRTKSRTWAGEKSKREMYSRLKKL", "test": "Inhibition of Cdc25a up to 10 uM"}, "[2]": {"molecular_target": "Cyclin-dependent kinase 1 (Homo sapiens, UniProt P06493)", "sequence (P06493 whole entry)": "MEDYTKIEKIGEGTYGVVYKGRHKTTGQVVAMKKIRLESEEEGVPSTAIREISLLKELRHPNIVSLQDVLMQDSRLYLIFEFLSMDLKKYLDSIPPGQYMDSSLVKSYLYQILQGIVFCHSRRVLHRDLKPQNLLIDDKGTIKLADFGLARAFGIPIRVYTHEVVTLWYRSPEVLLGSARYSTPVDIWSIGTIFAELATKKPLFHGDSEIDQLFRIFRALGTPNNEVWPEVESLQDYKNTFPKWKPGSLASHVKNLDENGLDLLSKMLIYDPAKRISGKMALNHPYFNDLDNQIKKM"}}, "note": "The source made the active and inactive calls. The calls are words filed in the database; no cut-off is given here.", "data": [{"smiles": "Cn1c(=O)[nH]c2ncnc(NCCS(=O)(=O)O)c21", "note": "[MICROXINE]", "values": [{"measurement": "Activity", "setting": "A549", "value": "inactive"}, {"measurement": "Activity", "setting": "P388", "value": "inactive"}, {"measurement": "Activity", "setting": "[1]", "value": "inactive"}, {"measurement": "IC50", "setting": "[2]", "value": 13, "unit": "µM"}]}]}
